Where “and” joins values, the source holds several entries; their conditions need not be identical. Identical values can stand only once.
Assays:
[1] = system: Triglyceride levels in the serum; assay: Guinea pig induced dyslipidemia model, serum triglycerides; type: in vivo
Description: The blood cholesterol and triglycerides were examined in male guinea pigs, following an oral administration of the various formulations in correlation to the Controlled group.
Measurement of cholesterol, and Triglyceride levels in the serum were performed following a 7-10 day of exposure to the different diets.
Day 3 all animals; Day 11 all animals; Day 24 all animals; Day 27 CBD, CNTL-fattening and CBD-chitosan group.
The blood collection tubes (BD 367955) were specialized for serum separation, containing a clot activator and a gel which separates the cell content (pellet) from the serum (supernatant) after centrifugation. Blood samples of ˜0.5 mL/animal were collected into the pre-marked tubes (study code, animal number and date). At all times blood was collected under anesthesia: Ketamine 20-40 mg/kg & Diazepam 1-2 mg/kg IM. Blood collection of all animals was performed via the periorbital eye venous plexus puncture.
Blood samples were left at room temperature for at least 45 minutes, and subsequently centrifuged ([…], 1790 g, 10 min/RT) for serum separation and left in the specialized tubes with the gel partitioning the separated serum and cell content. The samples were transferred as such to AML.
Following serum separation, the samples were kept at 2-8° C. until transferred to AML, for blood lipid profile analysis (cholesterol, LDL, HDL and Triglyceride levels). Sample transfer was via wet ice packed in Styrofoam boxes and transferred within 1-2 hours from blood separation.

[2] = Guinea pig induced dyslipidemia model, body weight gain; type: in vivo
Description: The objective of this research was to examine the cholesterol blood levels of guinea pigs, fed ad libitum a high-level fat diet rich in lauric and myristic acids alone or in combination with various formulations.
“Day 0” was initiation of the Study period, animals received regular guinea pig diet. Day 3 the animals were subjected to blood withdrawal and subsequently the first day of supplying the fattening diet. On day 11 chitosan diet was administered to the relevant group. On day 24 CBD diet and CBD chitosan diet were administered until day 27.
Determination of individual body weights of animals was conducted once weekly during the entire study.

Question: Which “Mean difference, TG delta 27 D to 10 D” value ([1]; contrast CNTL - CBD CNTL) does the source give for `C=C(C)[C@@H]1CCC(C)=C[C@H]1c1c(O)cc(CCCCC)cc1O` [CBD, Cannabidiol] here?
Answer: Its value is 28.3.

Question: And the “TG delta 27 D to 10 D by group second phase, Mean” value ([1]; group mean)?
Answer: Its value is −33.0.

Question: And the “Triglycerides lowering effect (in words)” value ([1]; guinea pig, in vivo)?
Answer: The value was “lower TG values”.

Question: What about the “Difference in triglycerides versus CNTL group” value ([1]; significance) of the same compound?
Answer: Its value is “not significant”.

Question: And the “Change in Weight by group, Mean” value ([2]; change in weight during treatment, group mean, N 15)?
Answer: Its value is 58.8.

Question: What about the “Mean difference, Change in Weight by group” value ([2]; contrast CBD - CHIT) of the same compound?
Answer: The value was 34.5.

Question: And the “Mean difference, Change in Weight by group” value ([2]; contrast CNTL - CBD)?
Answer: The value was 6.0.

Question: And the “Mean difference, DELTA WEIGHT second phase” value ([2]; contrast CNTL - CBD)?
Answer: Its value is 2.8.

Question: What about the “DELTA WEIGHT, Second phase Group” value ([2]; individual animals, second phase treatment) of the same compound?
Answer: Its value is 108.00 and 133.00 and 157.00 and 130.00.

Question: And the “DELTA WEIGHT by Second phase Group, Mean” value ([2]; study initiation to after second phase treatment, group mean)?
Answer: Its value is 132.0.

— patent US12233044B2, “Cannabidiol and chitosan compositions and methods of using the same” (priority 2017, dated 2025)
